# Tested on: EMT6 mouse tumor cells
# Experiment: EMT6 s.c. tumor model (monotherapy and combination with cyclophosphamide)
# Assay type: in vivo, mice
# Conditions: i.p. 3 times each week, mAb 40 mg/kg, CTX 80 mg/kg
# Source text: Athymic nude mice (Charles River Laboratories, Wilmington, Mass.), Balb/c mice, or C57B6 mice (Charles River Laboratories, Wilmington, Mass.) may be used for inoculation with mouse or human carcinoma cells. For treatment of established tumors in subcutaneous models, tumors may be allowed to grow to approximately 200 mm^3 in size, and then mice may be randomized into groups of 12-15 animals per group. In lung metastasis models, mice may be injected intravenously with tumor cells via tail vein. Animals may receive i.p. administered anti-TGFβRII mAb at a dose of 10-40 mg/kg three times each week. Mice in control groups may receive an equal volume of saline or normal IgG solution. […] Tumors may be measured twice each week with calipers. Tumor volumes may be calculated using the formula [π/6 (w1×w2×2)], where “w1” represents the largest tumor diameter and “w2” represents the smallest tumor diameter. […]
# The inhibitory activity of mAb MT1 against immunosuppressive cells, i.e. CD4/CD25/Foxp3/TGFβRII+Treg cells and Gr-1+/CD11b+/TGFβRII+ myeloid cells is evaluated in an EMT6 s.c. tumor model. The inhibitory effect of anti-TGFβRII antibody on Treg and Gr-1+/CD11b+ myeloid cell population in tumor-bearing mice may be determined by FACS analysis on the alteration of Gr-1+/CD11b+ population and CD4/CD25/Foxp3/TGFβRII+ and Gr-1+/CD11b+/TGFβRII+ population after treatment of mice with mAb MT1. […]
structure (smiles),measurement,value
"O=P1(N(CCCl)CCCl)NCCCO1 (centres unmarked) [CTX, Cyclophosphamide]",inhibition of primary tumor growth,62%
same,inhibition of spontaneous pulmonary metastasis,96%
